Test results as given in US6328989A, “Use of bicozamycin for the manufacture of a medicament for treating infections with enterohemorrhagic e. coli” (Fujisawa Pharmaceutical Co., Ltd., priority 1997, dated 2001).
≈ marks a conversion by molar mass, not a printed value. Where “and” joins values, the source holds several entries; their conditions need not be identical. Equal values may be shown once. Read-outs that look alike come from different tables or passages of the source.

Experiments:
[1] = test system: E. coli O-157; test: Death of mice infected with E. coli O-157; type: in vivo, E. coli FP1962 in DBA/2 mice; conditions: 10 mg/kg/dose orally twice a day for 4 days
[2] = test system: VT1; test: Amount of VT1 in cecum of mice infected with E. coli O-157 (VTEC-RPLA); type: in vivo, E. coli FP1962 in DBA/2 mice; conditions: day 6
[3] = test system: VT2; test: Amount of VT2 in cecum of mice infected with E. coli O-157 (VTEC-RPLA); type: in vivo, E. coli FP1962 in DBA/2 mice; conditions: day 6
[4] = test system: E. coli O-157; test: Viable cells in the cecum of mice infected with E. coli O-157; type: in vivo, E. coli FP1962 in DBA/2 mice; conditions: for Number of cells in cecum, individual mouse / Number of cells in cecum, mean: day 6; for Number of cells in cecum, individual mouse: DBA/2 mice; for Number of cells in cecum, mean: control mean 3.4 × 10^7
[5] = test system: verotoxins; set-up: species or system E. coli FP1962 in DBA/2 mice; conditions: mouse, in vivo, po
[6] = test system: VT1; type: cell-based, E. coli O-157:H7; conditions: 3h; for VT1 released: control 0h <2, control 3h 2; for VT1 released, ratio to control at 0h: control 3h ratio 2; for VT1 intracellular, ratio to control at 0h: control 3h ratio 32
[7] = test system: Verotoxins (VT1 and VT2); type: cell-based, E. coli O-157:H7; conditions: concentration greater than MIC; compared with untreated E. coli
[8] = test system: VT2; type: cell-based, E. coli O-157:H7; conditions: 3h; for VT2 released: control 0h <2, control 3h 8; for VT2 intracellular: control 0h <2, control 3h 16; for VT2 released, ratio to control at 0h: control 3h ratio 8; for VT2 intracellular, ratio to control at 0h: control 3h ratio 16
[9] = test system: E. coli O-157:H7; test: Minimum inhibitory concentration (MIC) against E. coli O-157:H7 strains by agar dilution method; type: cell-based; conditions: for MIC50 / MIC90: Escherichia coli, 18 h, 20 strains
[10] = 10 mg/kg/dose orally twice a day for 4 days
[11] = 32 mg/kg/dose orally twice a day for 4 days

| SMILES | Amount of VT1 in cecum, individual mouse [2, 11] | Amount of VT2 in cecum, individual mouse [3, 11] | Number of cells in cecum, individual mouse [4, 11] | Number of cells in cecum, mean [4, 11] | VT1 released ([6]; 10 μg/ml) | VT1 released, ratio to control at 0h ([6]; 10 μg/ml) | VT1 intracellular, ratio to control at 0h ([6]; 10 μg/ml) | production and release of verotoxins [7] | VT2 released ([8]; 10 μg/ml) | VT2 intracellular ([8]; 10 μg/ml) | VT2 released, ratio to control at 0h ([8]; 10 μg/ml) | VT2 intracellular, ratio to control at 0h ([8]; 10 μg/ml) | MIC50 ([9]; aerobic) | MIC90 ([9]; aerobic) | MIC50 ([9]; anaerobic) | MIC90 ([9]; anaerobic) | other results |
| --- | --- | --- | --- | --- | --- | --- | --- | --- | --- | --- | --- | --- | --- | --- | --- | --- | --- |
| CCn1cc(C(=O)O)c(=O)c2cc(F)c(N3CCNCC3)cc21 [NFLX, norfloxacin] |  |  |  |  |  |  |  |  |  |  |  |  |  |  |  |  | death, individual mouse [1]: died; tested mice that died due to increased verotoxins [1]: Five of 6; Amount of VT1 in cecum, individual mouse [2, 10]: 2 titer; Amount of VT2 in cecum, individual mouse [3, 10]: 16 titer; Number of cells in cecum, individual mouse [4, 10]: 6.9 × 10^5 cfu/site; Number of cells in cecum, mean [4, 10]: 6.9 × 10^5 cfu/site |
| CC[C@H]1OC(=O)[C@H](C)[C@@H](O[C@H]2C[C@@](C)(OC)[C@@H](O)[C@H](C)O2)[C@H](C)[C@@H](O[C@@H]2O[C@H](C)C[C@H](N(C)C)[C@H]2O)[C@](C)(OC)C[C@@H](C)C(=O)[C@H](C)[C@@H](O)[C@]1(C)O [CAM, clathromycin] | 2 titer and 4 titer | 2 titer and 4 titer and < 2 titer and 8 titer | 2.4 × 10^7 cfu/site and 7.9 × 10^7 cfu/site and 1.0 × 10^8 cfu/site and 1.3 × 10^8 cfu/site and 7.0 × 10^6 cfu/site and 4.1 × 10^8 cfu/site | 6.5 × 10^7 cfu/site |  |  |  |  |  |  |  |  |  |  |  |  |  |
| C[C@@H]1O[C@@H]1P(=O)(O)O [FOM, fosfomycin] | < 2 titer | < 2 titer and 32 titer and 4 titer and 16 titer | 7.1 × 10^5 cfu/site and 3.0 × 10^4 cfu/site and 1.2 × 10^8 cfu/site and 4.6 × 10^7 cfu/site and 9.8 × 10^6 cfu/site and 4.9 × 10^7 cfu/site | 6.2 × 10^6 cfu/site |  |  |  |  |  |  |  |  |  |  |  |  |  |
| C=C1CCO[C@]2([C@@H](O)[C@@](C)(O)CO)NC(=O)[C@@]1(O)NC2=O [BCM, Bicozamycin] | < 2 titer | < 2 titer and 2 titer | 4.5 × 10^3 cfu/site and 1.0 × 10^2 cfu/site and 8.5 × 10^3 cfu/site and 3.5 × 10^3 cfu/site and 1.0 × 10^5 cfu/site | 2.2 × 10^3 cfu/site | 8 maximum dilution times | 8 | 16 | increases in production and release of verotoxins were dramatically suppressed | 2 maximum dilution times | 4 maximum dilution times | 2 | 4 | 25 µg/mL (≈ 82.7 µM) | 25 µg/mL (≈ 82.7 µM) | 12.5 µg/mL (≈ 41.4 µM) | 25 µg/mL (≈ 82.7 µM) | production and release of verotoxins [5]: suppressed the production and release of verotoxins; VT1 released ([6]; 25 μg/ml): 8 maximum dilution times; VT1 released, ratio to control at 0h ([6]; 25 μg/ml): 8; VT1 intracellular, ratio to control at 0h ([6]; 25 μg/ml): 1; VT1 released ([6]; 100 μg/ml): 8 maximum dilution times; VT1 released, ratio to control at 0h ([6]; 100 μg/ml): 8; VT1 intracellular, ratio to control at 0h ([6]; 100 μg/ml): 1; VT2 released ([8]; 25 μg/ml): < 2 maximum dilution times; VT2 intracellular ([8]; 25 μg/ml): < 2 maximum dilution times; VT2 released, ratio to control at 0h ([8]; 25 μg/ml): 1; VT2 intracellular, ratio to control at 0h ([8]; 25 μg/ml): 1; VT2 released ([8]; 100 μg/ml): < 2 maximum dilution times; VT2 intracellular ([8]; 100 μg/ml): < 2 maximum dilution times; VT2 released, ratio to control at 0h ([8]; 100 μg/ml): 1; VT2 intracellular, ratio to control at 0h ([8]; 100 μg/ml): 1; MIC distribution: number of strains with MIC 25 μg/ml ([9]; aerobic, 20 strains tested): 20 strains; MIC distribution: number of strains with MIC 12.5 μg/ml ([9]; anaerobic, 20 strains tested, MIC 12.5 μg/ml): 15 strains; MIC distribution: number of strains with MIC 25 μg/ml ([9]; anaerobic, 20 strains tested): 5 strains; antimicrobial activity against VTEC ([4]; infected mice, 32 mg/kg/dose orally): showed an antimicrobial activity against VTEC |
| CC1(C)S[C@@H]2[C@H](NC(=O)[C@H](N)c3ccc(O)cc3)C(=O)N2[C@H]1C(=O)O [AMX, Amoxicillin] |  |  |  |  | ≥ 256 maximum dilution times | ≥ 256 | 32 | both production and release of verotoxins increased much more than those with an untreated E. coli | 8 maximum dilution times | 4 maximum dilution times | 8 | 4 | 3.13 µg/mL (≈ 8.57 µM) | 6.25 µg/mL (≈ 17.1 µM) | 1.56 µg/mL (≈ 4.27 µM) | 3.13 µg/mL (≈ 8.57 µM) | VT1 intracellular ([6]; 10 μg/ml, control 0h 2, control 3h 64): 64 maximum dilution times; MIC distribution: number of strains with MIC 1.56 μg/ml [9]: 14 strains; MIC distribution: number of strains with MIC 6.25 μg/ml [9]: 2 strains; MIC distribution: number of strains with MIC >100 μg/ml ([9]; aerobic, 20 strains tested): 1 strains; MIC distribution: number of strains with MIC >100 μg/ml ([9]; anaerobic, 20 strains tested): 1 strains |
